# US11690813B2, “Aminothiol reduction of ischemia-reperfusion-induced cell death” (OBVIA PHARMACEUTICALS LTD, priority 2018, dated 2023)
# Values joined by “and” are separate entries in the source; they are usually repeats but may differ in a detail not shown here. Equal values may be shown once. Read-outs that look alike come from different tables or passages of the source.
# Tests used:
# [1] = humans; cited from earlier work
# [2] = rat, in vivo
# [3] = in vivo
# [4] = system: irradiated skin; assay type: in vivo, rat
# [5] = mouse, in vivo
# [6] = system: pUC19 plasmid DNA; assay: x-irradiation ROS-induced nicking of pUC19 plasmid DNA; assay type: biochemical
# [7] = system: human blood lymphocytes; assay type: cell-based
# [8] = system: serum blood urea nitrogen (BUN); settings: mouse, in vivo, ip
# [9] = system: Caspase 3 and 7 activity in kidney homogenate supernates; settings: mouse, in vivo, ip
# [10] = mouse, in vivo; remark: listed apart in the source
# [11] = system: cardiac muscle; settings: mouse, in vivo, ip
# [12] = physchem; settings: buffer, pH 7.2
# [13] = system: primary neonate cardiac myocytes; assay type: cell-based, mice
# [14] = system: pUC19 plasmid DNA; assay type: biochemical
# [15] = parameters: species or system mice; settings: mouse, in vivo
# [16] = rats; cited from earlier work
# [17] = added 15 min before 90 Gy x-irradiation over 30 min
smiles,measurement,setting,value
"NCCCNCCSP(=O)(O)O [Amifostine, amifostine]",hypotension/fainting side effects,[1],hypotension/fainting side effects
same,nausea/emesis side effects,[1],severe nausea/emesis side effects
same,blood pressure response to challenge dose of IP epinephrine after drug,[2],no discernible effect upon blood pressure
same,effect on blood pressure,[2]; ip,immediate and irreversible drop in blood pressure
same,ocular toxicity associated with chronic hypotension,[2]; ip,discernible ocular phenotype/toxicity
same,retching and emesis responses,[3],significant bouts of both retching and emesis
same,Ionizing Radiation-ROS-Induced Dermatitis (% Clear Skin),"[4]; Topical 100 mM, day 13",0 % Clear Skin
CNCC(CS)CNC [PrC-210],PrC-210 thiol blood concentration,[5],3 mM
same,plasma/blood concentrations of PrC-210 thiol associated with protection,[5],1 to 3 mM
same,suppression of ROS-induced damage to plasmid DNA,[6],dose-dependent suppression
same,suppression of pUC19 DNA damage,[6],90%
same,suppression of γ-H2AX foci formation,[7],highly significant
same,reduction in serum blood urea nitrogen (BUN) level,[8],like reduction
same,blood pressure response to challenge dose of IP epinephrine after drug,[2],robust increase in blood pressure
same,effect on blood pressure,[2]; ip,no reduction in blood pressure
same,reduction in level of kidney caspase,[9],84%
same,reduction in level of kidney caspase at 0.24 MTD,[9],highly significant reductions
same,reduction in level of kidney caspase over dose range,[9],dose-dependent reduction
same,IP maximum tolerated dose (MTD),[10],504 ug/gm body weight
same,reduction in percentage of total cardiac muscle stained as dead-tissue,[11],36%
same,half-life,[12],3.5 h
same,retching and emesis responses,[3]; ferret,none of the 10 ferrets
same,H2O2-induced cell death eliminated,[13],~80%
same,suppression of .OH-induced ROS DNA damage,[14],complete suppression
same,half-life of the thiol,"buffer, pH 7.2",3.5 h
same,conversion to disulfide form,pH 6,no discernible conversion
same,Ionizing Radiation-ROS-Induced Dermatitis (% Clear Skin),"[4]; rat, in vivo",100 % Clear Skin
same,Ionizing Radiation-ROS-Induced Dermatitis (% Clear Skin),"[4]; rat, in vivo, ip",100 % Clear Skin
same,suppression of radiation-induced death,[15],complete suppression
same,survival against otherwise 100% lethal dose of radiation,[15],100%
NCC(CN)CS [PrC-211],reduction in level of kidney caspase at 0.24 MTD,[9],highly significant reductions
same,IP maximum tolerated dose (MTD),[10],500 ug/gm body weight
same,Ionizing Radiation-ROS-Induced Dermatitis (% Clear Skin),"[4]; rat, in vivo",55 % Clear Skin and 100 % Clear Skin
same,Ionizing Radiation-ROS-Induced Dermatitis (% Clear Skin),"[4]; rat, in vivo, ip",87 % Clear Skin
"NCCCNCCS [WR-1065, reference compound]",hypotension side effects,[16],hypotension side effects
same,suppression of ROS-induced damage to plasmid DNA,[6]; [17],dose-dependent suppression
"NCCS [cysteamine, reference compound]",suppression of ROS-induced damage to plasmid DNA,[6]; [17],dose-dependent suppression
CN(C)C(=O)C(CCN1CCC(O)(c2ccc(Cl)cc2)CC1)(c1ccccc1)c1ccccc1 [loperamide],retching and emesis responses,[3],strong retch and emesis responses
